Experimental data: patent US10532084B2, “Chondrocyte extracellular matrix-derived peptide” (EYEBIO KOREA, priority 2016, dated 2020)

Columns and labels:
[1] = tested on: VEGF, ICAM and MCP-1; assay: Quantitative real-time RT-PCR of retina and choroid, laser CNV model; assay type: in vivo, C57BL/6 mice; settings: mouse, 14 days after laser, 5 μg
Experimental: In order to confirm the inhibitory effect of hydroxy proline-GQDGLAGPK on neovascularization-related gene expression, RNA was extracted using RNeasy Mini kit (Qiagen) in mixture of retina and choroid of extracted mice eyeballs, and cDNA was synthesized by using oligo(dT) primer and reverse transcriptase. PCR products were amplified using the specific primer set (COSMOGENETECH, Korea) shown in Table 1 and SYBR Green PCR 2X PreMix (Enzynomics) and for the PCR conditions, the samples were incubated at 95° C. for 10 minutes, and 40 PCR cycles at 95° C. for 15 seconds, 60° C. for 30 seconds and 72° C. for 15 seconds, were performed. Relative quantification was calculated using 2-(DDCT) method [Livak and Schmittgen, 2001; DDCT=(CT, target-CT, actin) control group (CT, target-CT, actin) control group].
After 14 days of laser irradiation in mouse, RNA was extracted from retina and choroid to analyze the gene expression by real-time RT-PCR.

[2] = tested on: VEGF, VEGFR-1 (Flt-1), VEGR-2 (Flk-1) and Angiopoietin 2; settings: mouse, 14 days after laser, 5 μg
Experimental: C57BL/6 mice were purchased from Orient Bio and the animal experiments was carried out in accordance with the guidelines approved by the University of Inje (No, 2013-053) and ARVO regarding animal use for eye and vision studies. 6-week-old C57BL/6 mice were treated with diode green laser (532 nm, 150 mW, 0.1 sec, […], photocoagulator) to damage the retinal optic nerve area. Immediately after laser irradiation, CP1, CPII and positive control group Avastin were dissolved in PBS and administered […] each per a day in the eyeball for 5 days. The above experiment for each experiment group was performed using both eyes of five mice each.

[3] = tested on: corneal surface; assay: Corneal surface irregularity (smoothness) score, dry eye model; assay type: in vivo, NOD.B10.H2b mice
Experimental: (§1) NOD.B10.H2^b mice were purchased from Jackson Laboratory (Bar Harbor, Me., USA). Animal experiments were carried out in accordance with the guidelines approved by the University of Inje (No.; 2014-029) and ARVO regarding animal use for eye and vision research. NOD.B10.H2^b mice at 12-16 weeks old were exposed to 40-50% ambient humidity and ventilation using a fan for 18 hours a day as dry stress and subcutaneously injected with 0.5 mg/0.2 mL muscarinic receptor blocker. In addition, scopolamine hydrobromide (Sigma-Aldrich, St. Louis, Mo.) was injected alternately to the […] hips four times a day for 10 days at 9 am, […].
(§2) After 10 days of ocular dry stress, the scopolamine injection was stopped, and switched to a normal humidity and temperature environment and the dry stress was removed, 10 mg/ml Hyp-[…] and collagen were dissolved in normal saline to administer 5 μL each 5 times a day for 10 days, and normal saline and 0.1% HA were administered to the eyeball 5 times a day for 10 days. Three mice were used in each of the six experimental groups using both eyes of the mice and all experiments were repeated.
As for the curvature of the corneal surface, a reflected image of the white ring was obtained from an optical fiber ring illumination of a stereoscopic microscope (SZX7; Olympus) after anesthetizing the animal. Corneal smoothness was assessed by grading the irregularity of corneal epithelial cells reflected in the white ring of the digital image. Corneal irregularity severity score was calculated by dividing the reflection ring into quadrants and grading into 5 grades according to degree of irregularity. No irregularity is grade 0, irregularity of ¼ (quarter) is grade 1; irregularity of 2/4 (two-quarters) is grade 2; irregularity of ¾ (three-quarters) is grade 3; entire irregularity is grade 4; and […] and thus all the rings were confirmed.
The degree of corneal curvature in each experiment group was quantified to confirm the bendability of the corneal surface.

[4] = tested on: TNF-α, ICAM-1, VCAM-1, MMP-2 and MMP-9; settings: 10 days of treatment after removal of dry stress
Experimental: as §1, §2

With “hydroxy proline-GQDGLAGPK [Hyp-GQDGLAGPK]” the “MCP-1 gene expression in retina and choroid” value ([1]; laser-treated group increased about 10 times) was “significantly decreased”, the “VEGF gene expression in retina and choroid” value ([1]; laser-treated group increased about 55 times) was “decreased to the level similar to that of the laser-untreated group” and the “ICAM gene expression in retina and choroid” value ([1]; laser-treated group increased about 300 times) was “significantly decreased”. The “protein expression of VEGF, VEGFR-1, -2 and Angiopoietin 2 compared with Avastin” value [2] was “almost similar to that of Avastin”, the “protein expression of VEGF, VEGFR-1, VEGFR-2 and Angiopoietin 2 in retina and choroid” value ([2]; immunoblotting) was “markedly decreased” and the “decrease of corneal surface curvature score vs CsA group” value ([3]; day 10) was 40%. The “decrease of corneal surface curvature score vs DQS group” value ([3]; day 10) was 33.3%, the “decrease of corneal surface curvature score vs HA group” value ([3]; day 10) was 33.3% and the “decrease of corneal surface curvature score vs collagen group” value ([3]; day 10) was 45.5%. For the same substance, the “decrease of corneal surface curvature score vs normal saline group” value ([3]; day 10) was 40%, the “decrease of corneal surface curvature score vs dry stress (DS 10D)” value ([3]; day 10 after removal of dry stress) was 53.8% and the “degree of curvature (irregularity score) of the corneal surface” value ([3]; day 10 after removal of dry stress, grades 0-5, normal 0.33±0.58, DS 10D 4.33±0.58) was 2.0±0 points. The “expression of inflammation-related factors in the lacrimal gland compared with CsA, DQS and HA treated mice” value [4] was “significantly inhibited” and the “expression of inflammation-related factors (TNF-α, ICAM-1, VCAM-1, MMP-2, MMP-9) in the lacrimal gland” value ([4]; immunostaining) was “markedly reduced”.
